In patent US12310380B2, “Method for extending shelf-life of agricultural produce” (National Institute of Plant Genome Research, priority 2019, dated 2025):

Test system: Nanjungud rasbale banana
Experiment: Ripening of banana: NO donors versus hypoxia-induced NO
Type: in vivo
Details: SNAP 100 μM, chitosan 1%
Procedure: Effects of using hypoxia-induced NO on fruit ripening were tested against the available NO donors such as SNP (Sodium nitroprusside), SNAP (S-Nitroso-N-acetyl-dl-penicillamine), chitosan on Nanjungud rasbale banana. Physiological concentrations of NO donors were used and the concentration for SNP used was 1 mM, SNAP was used in a concentration of 100 μM, chitosan was used in a concentration of 1%. Out of all the treatments, hypoxia-induced NO yielded better results where a significant delay of ripening was observed (Table-1). SNP and chitosan were effective up to 2 days but later they were ineffective on delaying ripening. Even after 3 days of treatment only one fruit ripened in the presence of formula in comparison to other treatments where 60% of fruits were ripened (FIG. 10). […] It was observed that the delay in ripening of bananas by the method of the present disclosure was 7 days as compared to the bananas which were not treated by the method of the present disclosure.

CC(=O)NC(C(=O)O)C(C)(C)SN=O (racemic) [SNAP, S-Nitroso-N-acetyl-dl-penicillamine]
Number of fruits ripened (Day 0, SNP 1 mM): 0
Number of fruits ripened (Day 1, SNP 1 mM): 0
Number of fruits ripened (Day 2, SNP 1 mM): 2
Number of fruits ripened (Day 3, SNP 1 mM): 4
